From PubChem BioAssay AID1996
Values after ≈ are worked out from the molar mass of the structure shown.

Conditions: buffer; pH 7.4; 200.0 µM

| Structure (SMILES) | solubility kinetic [µg/mL] |
| --- | --- |
| COc1ccc(CNC(=S)NC(C)CCc2ccccc2)cc1 (stereo unspecified) | 14.8 (≈ 45.1 µM) |
| Cc1ccc(NC(=O)COC(=O)Cc2ccccc2)cc1S(=O)(=O)N1CCOCC1 | 58.1 (≈ 134 µM) |
| COC(=O)c1cccc(NC(=O)c2cnccn2)c1 | 9.5 (≈ 36.9 µM) |
| Nc1ncccc1C(=O)OCC(=O)NC1CCCCCC1 | 38 (≈ 130 µM) |
| Cc1cc(C)c(C#N)c(Nc2cccc(Br)c2)n1 | < 0.2 |
| Cc1ccc(-n2c(=O)[nH]c3c(oc4ccccc43)c2=O)cc1 | 38.8 (≈ 133 µM) |
| COC(=O)c1cc(NC(=O)c2cccs2)ccc1N1CCOCC1 | 43.5 (≈ 126 µM) |
| O=C(CN1C(=O)c2ccccc2S1(=O)=O)NCc1cccs1 | 22.2 (≈ 66 µM) |
| N#C/C(=C\c1cccs1)C(=O)c1ccccc1Cl | > 41.1 |
| O=C(CNC(=O)c1ccccc1)NCc1ccc(Cl)cc1 | 10.6 (≈ 35 µM) |
| Cn1cnc(S(=O)(=O)NC2CCN(Cc3c(F)cccc3Cl)CC2)c1 | > 58 |
| CNC(=O)CNC(=O)Nc1ccc(C)cc1 | > 33.2 |
| CC1CCCCC1NC(=O)CN1C(=O)COc2ccccc21 (stereo unspecified) | 8.2 (≈ 27.1 µM) |
| O=C(CCS(=O)(=O)c1ccccc1)Nc1ccccn1 | > 43.6 |
| Cc1cc(C)nc(SSc2nc(C)cc(C)n2)n1 | 40.6 (≈ 146 µM) |
| COc1cccc(N2CCN(C(=O)c3ccc(-c4ccccc4)cc3)CC2)c1 | 0.8 (≈ 2.15 µM) |
| COc1cccc(-n2c(=S)[nH]c3c(oc4ccccc43)c2=O)c1 | 45.3 (≈ 140 µM) |
| CC(=O)Nc1ccc(/C=C(\C#N)C(N)=O)cc1 | 16.8 (≈ 73.3 µM) |
| COc1ccccc1CC(=O)N1CCN(C(=O)c2ccco2)CC1 | 48.3 (≈ 147 µM) |
| CC(=O)c1cccc(NC(=S)NCCc2ccc(F)cc2)c1 | > 47.5 |
| Cc1cccc2[nH]c3c(N4CC=C(c5ccc(F)cc5)CC4)ncnc3c12 | 1 (≈ 2.79 µM) |
| CC(C)C1Cc2[nH]c(=O)c(C#N)cc2CO1 (stereo unspecified) | > 32.7 |

| Structure (SMILES) | solubility kinetic [µg/mL] |
| --- | --- |
| CCC(C)(C)NC(=O)COc1ccc(OCc2ccccc2)cc1 | 9 (≈ 27.5 µM) |
| CS(=O)(=O)Nc1ccccc1C(=O)NCCSc1ccccc1 | 51 (≈ 146 µM) |
| COC(=O)Cc1ccc2oc(-c3cccnc3)nc2c1 | 37 (≈ 138 µM) |
| COc1ccccc1OCC(=O)N1CCCCCCC1 | > 41.6 |
| Cc1ccccc1CC(=O)NCCN1CCOCC1 | > 39.4 |
| CC1CC(C)CN(C(C)C(=O)Nc2cc(S(=O)(=O)N3CCCCC3)ccc2Cl)C1 (stereo unspecified) | < 0.3 |
| COc1cccc2c1Oc1cc([N+](=O)[O-])cc(N(C)C(C)=O)c1C=C2 | 38.2 (≈ 112 µM) |
| CC1(C)Nc2ccccc2N(Cc2ccc([N+](=O)[O-])cc2)C1=O | > 46.7 |
| Cc1cc(C(=O)CSc2nc(N)cc(N)n2)c(C)n1CC1CCCO1 (stereo unspecified) | > 54.2 |
| Cc1ccc([N+](=O)[O-])c(OCCn2cnc3ccccc32)c1 | 11.6 (≈ 39 µM) |
| CC(=O)NO | < 0.2 |
| O=C(O)C1CCCCC1C(=O)Nc1ccc(OCc2ccccc2)cc1 (stereo unspecified) | 44.2 (≈ 125 µM) |
| Nc1ccc(-c2nc3ccccc3s2)cn1 | 17.7 (≈ 77.9 µM) |
| COc1ccc(C(=O)O/N=C(\N)c2cccc(C)c2)cc1OC | 14.7 (≈ 46.8 µM) |
| OC(CN1CCC(Cc2ccccc2)CC1)c1ccccc1 (stereo unspecified) | > 44.3 |
| CNC(=O)Cn1c(C)cc(=O)c2cccc(OC)c21 | > 39 |
| CC(C)n1cc(NC(=O)COc2ccccc2Cl)cn1 | > 44.1 |
| CCOC(=O)[C@@H]1CCN(Cc2ccccc2)C[C@H]1c1ccccc1.Cl | 30.7 |
| O=C(NN1CCOCC1)c1cccc(F)c1 | > 33.6 |
| CC1CC(C)CN(C(=O)COC(=O)c2cncc(Br)c2)C1 (stereo unspecified) | 42.4 (≈ 119 µM) |
| CC(=O)c1cccc(NC(=O)COc2ccc3oc(=O)cc(C)c3c2)c1 | 1.4 (≈ 3.98 µM) |
| CC1CCCN(C(=O)c2cc3ccccc3cc2O)C1 (stereo unspecified) | 38.5 (≈ 143 µM) |

| Structure (SMILES) | solubility kinetic [µg/mL] |
| --- | --- |
| Cc1cc(Cl)ccc1NC(=O)CN1CCCC1 | > 37.9 |
| Cc1ccc(CC(=O)OCC(=O)c2ccc[nH]2)cc1C | 10.9 (≈ 40.2 µM) |
| Cc1ccc(C(=O)CCC(=O)N2CCC(C(N)=O)CC2)cc1 | 43.5 (≈ 144 µM) |
| CC1CC(C)CN(c2cc(N(C)CCO)c([N+](=O)[O-])c3nonc23)C1 (stereo unspecified) | 52.1 (≈ 149 µM) |
| CCn1c(=O)ccc2cc([N+](=O)[O-])ccc21 | > 32.7 |
| COCCNC(=O)CN1C2CCC1CC(O)(c1cccnc1)C2 (stereo unspecified) | > 47.9 |
| Cn1c(SCC(=O)Nc2nccs2)nnc1C1CC1 | > 44.3 |
| Cc1ccc(CNC(=O)CCCc2c[nH]c3ccccc23)cc1 | 17.6 (≈ 57.4 µM) |
| COc1ccc(NC(=O)C2C3CCC(O3)C2C(=O)O)c(OC)c1 (stereo unspecified) | > 48.2 |
| Cc1ccccc1Nc1ccc([N+](=O)[O-])cn1 | > 34.4 |
| COCC(=O)Nc1cc(C)cn(Cc2ccc(F)cc2)c1=O | > 45.6 |
| COc1ccc(/C=C/C(=O)NCCCN2CCCC2)cc1 | > 43.3 |
| COCCn1c(SCC(=O)NNC(=O)c2ccccc2)nc2ccccc21 | > 57.7 |
| CCN(CC)c1cc(C)c2cc(NC(=O)c3cccs3)ccc2n1 | < 0.2 |
| CN(C)C(=O)Oc1ccc2c(c1)O/C(=C\c1ccc(Cl)cc1)C2=O | 0.9 (≈ 2.62 µM) |
| CCn1cc(C2CC(=O)NC2=O)c2ccccc21 (stereo unspecified) | > 36.3 |
| COc1ccc(NC(=O)CSCc2ccc(C#N)cc2)c(OC)c1 | > 51.4 |
| Cc1ccccc1NC(=O)C1CC(=O)N(Cc2ccccc2)C1 (stereo unspecified) | > 46.3 |
| CSc1ncc(CN2CCc3c([nH]c4ccccc34)C2C(C)(C)C)cn1 (stereo unspecified) | 19.5 (≈ 53.2 µM) |
| CCN(CC(=O)Nc1ccc(OC)cc1)C(=O)c1ccc2ccccc2c1 | 43.9 (≈ 121 µM) |
| CC(C)c1ccccc1NS(=O)(=O)c1cccs1 | 28.2 (≈ 100 µM) |
| Cc1cc(Br)ccc1NC(=O)CNC(=O)c1cnn(C)c1 | > 52.7 |

| Structure (SMILES) | solubility kinetic [µg/mL] |
| --- | --- |
| Cc1ccc(-c2c[nH]c(=S)n2-c2ccccc2F)cc1 | 11.2 (≈ 39.4 µM) |
| COc1ccccc1NC(=O)Nc1nc2ccc(S(N)(=O)=O)cc2s1 | 1.6 (≈ 4.23 µM) |
| CCN(CC)CC(=O)Nc1c(C#N)cnn1-c1ccccc1 | > 44.6 |
| O=c1[nH]c(=S)n(C2CC2)c(O)c1C=NCc1ccc(F)cc1 | 0.9 (≈ 2.82 µM) |
| COc1ccccc1NC(=O)COC(=O)C1C2CC3OC(=O)C1C3C2 (stereo unspecified) | > 51.8 |
| Cc1noc(C)c1S(=O)(=O)Nc1ccc(C#N)cc1 | > 41.6 |
| CN(C)S(=O)(=O)N1CCN(c2ccc([N+](=O)[O-])c(NC3CC3)c2)CC1 | 0.6 (≈ 1.62 µM) |
| O=c1[nH]c([O-])c(Cc2ccc3c(c2)OCO3)c(=O)[nH]1.[NH4+] | 29.7 |
| Cc1ccc(C2=NC3(CCCC3)NC2=S)cc1 | 2.2 (≈ 9 µM) |
| N#Cc1ccccc1NC(=S)NC(=O)C1CCC1 | > 38.9 |
| Cc1cc(C)nc(SCCC(=O)Nc2ccc(F)cc2)n1 | > 45.8 |
| CC(C)CC1(C)NC(=O)N(CC(=O)Nc2ccc(F)c(F)c2F)C1=O (stereo unspecified) | 48.6 (≈ 136 µM) |
| Cc1nc(SCC(=O)N2CCOCC2)c2c(C)c(C)sc2n1 | 49.1 (≈ 145 µM) |
| COC(=O)c1ccc(-c2noc(CN3CCCC(CNC(C)=O)C3)n2)cc1 (stereo unspecified) | 43.3 (≈ 116 µM) |
| O=C(/C(=C(\O)c1ccccc1)c1nc2ccccc2[nH]1)c1ccccc1 | < 0.4 |
| CCOC(=O)c1cc(-c2csc(-c3ccc(C(F)(F)F)cc3)n2)on1 | < 0.4 |
| COCC(C)Nc1ccc(S(=O)(=O)N2CCCC2)cc1[N+](=O)[O-] (stereo unspecified) | 44.2 (≈ 129 µM) |
| CC(C)CN1CCN(Cc2cccc3cccnc23)CC1CCO (stereo unspecified) | 37.1 (≈ 113 µM) |
| OC1CSc2nc3ccccc3n2C1 (stereo unspecified) | 26.6 (≈ 129 µM) |
| Cc1c(C(=O)N2CCCC2)oc2ccc(Br)cc12 | 25.1 (≈ 81.4 µM) |
